According to patent publication US8541670B2, “Compositions and methods for inhibiting tumor cell growth” (priority 2007, dated 2013):
Where no end group is shown, it is not given here. red fluorescent dye = not defined here

Experiments:
[1] = tested on: PI3K; assay: Cell-based kinase assay, phosphorylation of intracellular substrate (Ser-241 PDK1)
Procedure: (§1) As a specific substrate, the phosphorylation level of GSK-3[…] at Ser-9 was also evaluated. […] The decrease was specific to the AKT phosphorylation site on GSK-3[…] at Ser-9, since a change in the phosphorylation level of GSK-3[…] at Tyr-216 or GSK-3[…] at Tyr-279 was not observed. Moreover, the in vivo reduction of the phosphorylation of AKT substrates was more obvious at the injection site, since a significant change in the phosphorylation of AKT substrates in the frontal cortex or cerebellum between the two hemispheres was not observed. […] To test the specificity/selectivity of ZaTa as the inhibitor of AKT1 versus the other major kinases, a series of in vitro kinase assays was performed at IC50 for AKT1 and at ten times higher concentrations. […]
(§2) Phosphorylation sites for kinases analyzed herein included Ser-235/236 S6 (a substrate for p70S6K), Tyr-207 CRKL (a substrate for Abl; Zipfel, et al. (2004) supra), Ser-241 PDK1 (a substrate for PI3K), Tyr-1022/1023 JAK1 (a substrate for JAK3; Wang, et al. (2003) supra), Ser-421 Huntingtin (a substrate for SGK; Rangone, et al. (2004) supra), Tyr-783 PLC (a substrate for TrkB; Middlemas, et al. (1994) supra), and Ser-338 cRaf (a substrate for PAK3; King, et al. (1998) supra).

[2] = target: T1, SGK (Homo sapiens, UniProt O00141); assay: Cell-based kinase assay, phosphorylation of intracellular substrate (Ser-421 Huntingtin)
T1 construct: endogenous in cells
T1 sequence (O00141 1-431): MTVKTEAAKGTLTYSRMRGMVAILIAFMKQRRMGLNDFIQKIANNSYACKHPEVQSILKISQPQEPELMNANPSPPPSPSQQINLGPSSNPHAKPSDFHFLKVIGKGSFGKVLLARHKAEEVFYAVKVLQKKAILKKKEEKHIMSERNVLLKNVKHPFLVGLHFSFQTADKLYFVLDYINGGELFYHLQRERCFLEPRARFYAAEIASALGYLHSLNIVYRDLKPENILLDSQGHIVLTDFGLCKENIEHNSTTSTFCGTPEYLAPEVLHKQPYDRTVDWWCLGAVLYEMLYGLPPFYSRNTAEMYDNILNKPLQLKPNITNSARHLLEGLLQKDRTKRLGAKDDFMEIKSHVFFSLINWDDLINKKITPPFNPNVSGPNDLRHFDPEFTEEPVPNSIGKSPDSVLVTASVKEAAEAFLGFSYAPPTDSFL
Procedure: as §1, §2

[3] = tested on: AKT; assay: In vivo AKT inhibition in brain after stereotactic injection (immunofluorescence, western blot); design: species or system mouse
Procedure: As a specific substrate, the phosphorylation level of GSK-3[…] at Ser-9 was also evaluated. […] The decrease was specific to the AKT phosphorylation site on GSK-3[…] at Ser-9, since a change in the phosphorylation level of GSK-3[…] at Tyr-216 or GSK-3[…] at Tyr-279 was not observed. Moreover, the in vivo reduction of the phosphorylation of AKT substrates was more obvious at the injection site, since a significant change in the phosphorylation of AKT substrates in the frontal cortex or cerebellum between the two hemispheres was not observed. […] To test the specificity/selectivity of ZaTa as the inhibitor of AKT1 versus the other major kinases, a series of in vitro kinase assays was performed at IC50 for AKT1 and at ten times higher concentrations. A panel of the following 32 kinases was first tested in vitro using the active form of each kinase and a specific substrate: AKT2, AKT3, PKA, PKC[…], PKC, PI3K[…], PI3K[…], PI3K, SGK, PAK2, PAK3, SAPK2/p38, Abl, CaMKII, CDK1/cyclinB, CDK5/p35, CK1, CK2, CSK, GSK3[…], GSK3[…], JNK1[…]1, MAPK1, p70S6K, PDGFR[…], PDGFR[…], PDK1, PKG1[…], TrkB, JAK2, JAK3, and Syk. […] However, at ten times higher concentration, ZaTa inhibited AKT2 (63%), PI3K[…] (72%), p70S6K (64%), SGK (73%), PAK3 (83%), JAK3 (79%), TrkB (84%), and Abl (42%). To confirm the in vitro inhibitory effect on these kinases in cells, a cell-based assay was used to determine the effect of labeled ZaTa on the phosphorylation levels of well-known intracellular substrates for each kinase (Zipfel, et al. (2004) Curr. Biol. 14:1222-1231; Wang, et al. (2003) Arch. Biochem. Biophys. 410:7-15; King, et al. (1998) Nature 396:180-183; Rangone, et al. (2004) Eur. J. Neurosci. 19:273-279; Middlemas, et al. (1994) J. Biol. Chem. 269:5458-5466; Huang, et al. (1999) J. Biol. Chem. 274:7870-7878). […] Given that most of the above-listed kinases have no known inhibitor, it is contemplated that the ZaTa could be used at micromolar concentrations in in vitro studies to inhibit the activity of the select kinases.
These different localization patterns of ZaTa within the cell were usually accompanied with redistribution of AKT to the site of ZaTa.
N2a cells were cultured in Dulbecco's Modified Eagle's Medium (DMEM) and OPTI-MEM® media (50% of each; GIBCO-BRL, Gaithersberg, Md.) supplemented with 5% fetal bovine serum (FBS; SIGMA, St. Louis, Mo.), penicillin-streptomycin and L-Glutamine (GIBCO-BRL). Cells (˜1×10^6) or frontal cortex of mouse brain (0.05-0.1 gram) were homogenized in ice cold lysate buffer (0.25 M Tris, pH 7.5) containing protease inhibitors (Protease Inhibitor Cocktail tablets; Boehringer Mannheim, Mannheim, Germany) and phosphatase inhibitors (Phosphatase Inhibitor Cocktails I & II; SIGMA) and lysed through three cycles of freezing in liquid nitrogen and thawing in a 37° C. water bath. Protein concentration was measured using a commercially available protein assay (BIO-RAD, […].) protein assay and spectrometry at […]. Equal amounts of total protein were loaded on 4-12% gradient Bis-Tris gels, separated using the NUPAGE® system (INVITROGEN, Carlsbad, Calif.) and transferred onto nitrocellulose membrane. The membrane was probed with primary and secondary antibodies and signals were detected by chemiluminescence followed by autoradiography.
For immunofluorescence analysis of mouse brain, anaesthetized mice were perfused with PBS-buffered formalin, fixed overnight, placed in PBS, and stored at 4° C. VIBRATOME® sections, 50-μm thick, were cut in the coronal plane from the fronto-striatum brain region. […] The sections were blocked overnight using 2% normal goat sera in PBS with 0.3% TRITON™ X-100 and then incubated for 48 hours in blocking solution with 1:500 dilution of anti-phospho-AKT substrate antibody. Sections were washed four times for 15 minutes in PBS, incubated with blocking solution containing goat anti-rabbit ALEXA®-568 secondary antibody (MOLECULAR PROBES, Eugene, Oreg.) for 48 hours, and washed four times for 15 minutes in PBS. […]

[4] = tested on: PI3K[…]; assay: In vitro kinase assay PI3K[…]; format: biochemical; conditions: ten times higher concentration than 0.1 μM
Procedure: As a specific substrate, the phosphorylation level of GSK-3[…] at Ser-9 was also evaluated. […] The decrease was specific to the AKT phosphorylation site on GSK-3[…] at Ser-9, since a change in the phosphorylation level of GSK-3[…] at Tyr-216 or GSK-3[…] at Tyr-279 was not observed. Moreover, the in vivo reduction of the phosphorylation of AKT substrates was more obvious at the injection site, since a significant change in the phosphorylation of AKT substrates in the frontal cortex or cerebellum between the two hemispheres was not observed. […] To test the specificity/selectivity of ZaTa as the inhibitor of AKT1 versus the other major kinases, a series of in vitro kinase assays was performed at IC50 for AKT1 and at ten times higher concentrations. A panel of the following 32 kinases was first tested in vitro using the active form of each kinase and a specific substrate: AKT2, AKT3, PKA, PKC[…], PKC, PI3K[…], PI3K[…], PI3K, SGK, PAK2, PAK3, SAPK2/p38, Abl, CaMKII, CDK1/cyclinB, CDK5/p35, CK1, CK2, CSK, GSK3[…], GSK3[…], JNK1[…]1, MAPK1, p70S6K, PDGFR[…], PDGFR[…], PDK1, PKG1[…], TrkB, JAK2, JAK3, and Syk. […] However, at ten times higher concentration, ZaTa inhibited AKT2 (63%), PI3K[…] (72%), p70S6K (64%), SGK (73%), PAK3 (83%), JAK3 (79%), TrkB (84%), and Abl (42%). […]

[5] = tested on: PKA and CDK5; assay: In vivo phosphorylation of DARPP-32 at Thr-34 (PKA site) and Thr-75 (CDK5 site); design: species or system mouse; conditions: striatum
Procedure: As a striatal specific substrate for PKA and CDK5, the phosphorylation level of DARPP-32 was determined at Thr-34 (the PKA site) or at Thr-75 (the CDK5 site)(Huang, et al. (1999) supra).

Substance	inhibition of PI3K in cells [1]	inhibition of SGK in cells [2]	phosphorylation level of AKT substrates in ZaTa-positive cells ([3]; stereotactic injection into frontal cortex)	inhibition of PI3K[…] [4] [%]	change in phosphorylation of AKT substrates in frontal cortex or cerebellum ([3]; away from striatal injection site, between hemispheres)	phosphorylation level of AKT substrates in vivo, western blot ([3]; one hour after stereotactic injection)	phosphorylation level of AKT substrates in striatum, immunofluorescence ([3]; stereotactic injection, versus DMSO-injected hemisphere)	change in phosphorylation level of GSK-3[…] at Tyr-216 or Tyr-279 ([3]; striatum)	phosphorylation level of GSK-3[…] at Ser-9 ([3]; striatum, versus DMSO-injected hemisphere)	phosphorylation of DARPP-32 at Thr-34 or Thr-75 [5]
labeled ZaTa: ZaTa peptide labeled with a red fluorescent dye at its N-terminus ({red fluorescent dye}-AKRVKGRTWTLCGTPEY; reading uncertain)	did not cause inhibition	did not cause inhibition	specific reduction in phosphorylation level of AKT substrates							
AKRVKGRTWTLCGTPEY [ZaTa]				72	not observed	significant decrease	decrease in the phosphorylation level of AKT substrates	not observed	specific reduction	did not cause any significant change
